From patent publication US7589057B2, “Oil-in-water method for making alpha-2 agonist polymeric drug delivery systems” (Allergan, Inc., priority 2004, dated 2009)
In brackets after ≈: the same amount, converted by molar mass.

How the values were obtained:
[1] = Solubility of bimatoprost in water; assay type: physicochemical; settings: room temperature
Excerpt: (§1) FIGS. 2A, 2B, 2C, 2D, 2E, and 2F illustrate the chemical structure of bimatoprost (AGN 192024, FIG. 2A), 15β bimatoprost (FIG. 2B); 5,6-trans bimatoprost isomer (FIG. 2C); C1 acid of bimatoprost (FIG. 2D); triphenyphosphine oxide (TPPO; FIG. 2E); and 15-Keto bimatoprost (FIG. 2F). Bimatoprost is the active ingredient and the other chemicals are impurities that may be present. […] Bimatoprost is a non-ionizable compound.

[2] = assay type: physicochemical
Excerpt: as §1

[3] = Ionisability of bimatoprost; assay type: physicochemical
Excerpt: as §1

[4] = Effects of gamma sterilization on the stability of bimatoprost; assay type: physicochemical
Method: The formula abbreviations correspond to compounds illustrated in FIGS. 2A-2F. High performance liquid chromatography was used to quantify bimatoprost and impurities present in the microparticles. Analytes were eluted from a Waters Symmetry® C18 reverse-phase column using a mobile phase composed of 72/18/10 (water/acetonitrile/methanol v/v/v) containing 0.03% (w/v) trifluoroacetic acid. UV detection was performed at 210 nm.

For `CCNC(=O)CCC/C=C\C[C@@H]1[C@@H](/C=C/[C@@H](O)CCc2ccccc2)[C@H](O)C[C@@H]1O` [Bimatoprost], the solubility [1] was 3200 µg/mL (≈ 7.7 mM), the “partition coefficient Log P” value [2] was 2.4 plus or minus 0.1 and the ionisability [3] was “non-ionizable”. The “% wt/wt 5,6-trans” value ([4]; gamma sterilized) was 0.1 % wt/wt, the “% wt/wt 15β” value ([4]; gamma sterilized) was 0.1 % wt/wt and the “% wt/wt bimatoprost” value ([4]; gamma sterilized) was 85.3 % wt/wt. The “% wt/wt, 15-keto” value ([4]; gamma sterilized) was 2.3 % wt/wt, the “decrease of the amount of active bimatoprost by gamma sterilization” value ([4]; gamma sterilized vs none sterilized) was “about 10%” and the “% wt/wt 5,6-trans” value ([4]; none sterilized) was 0.1 % wt/wt. For the same compound, the “% wt/wt 15β” value ([4]; none sterilized) was 0.2 % wt/wt, the “% wt/wt bimatoprost” value ([4]; none sterilized) was 95.3 % wt/wt and the “% wt/wt, 15-keto” value ([4]; none sterilized) was 1.0 % wt/wt.
